Assay results from patent US20220296635A1 (Board of Regents, The University of Texas System, priority 2013, published 2022).

Legend:
[1] = tested on: Human mesenchymal stem cells (hMSCs); assay: Calcium deposit formation in differentiated hMSC cultures (Von Kossa staining); type: cell-based; details: 20 μM citrate, osteogenic medium; 7, 14 and 21 days
Method: Methods of promoting bone growth according to some embodiments described herein were carried out as follows. Human mesenchymal stem cells (hMSCs) (Lonza Walkersville Inc., USA) were cultured in Dulbecco's Modified Eagle's Medium (DMEM) supplemented with 10% FBS and 1% penicillin and streptomycin. […] The hMSC cells were seeded at a density of 10^4 cells/mL after 80-90% confluence in 96-well plates. […] Media were changed every other day.

[2] = tested on: osteopontin (OPN); assay: Osteopontin protein level in hMSCs by Western Blot; type: cell-based, Human; details: 20 μM, 200 μM or 2000 μM citrate; 7 days and 14 days
Method: Methods of promoting bone growth according to some embodiments described herein were carried out as follows. Human mesenchymal stem cells (hMSCs) (Lonza Walkersville Inc., USA) were cultured in Dulbecco's Modified Eagle's Medium (DMEM) supplemented with 10% FBS and 1% penicillin and streptomycin. For differentiation, hMSCs were switched to an osteogenic medium (OGM) comprising the previous DMEM-based medium further supplemented with […] β-glycerophosphate and 50 μM ascorbic acid-2-phosphate. The hMSC cells were seeded at a density of 10^4 cells/mL after 80-90% confluence in 96-well plates. […] Media were changed every other day.

[3] = tested on: osteosarcoma cells (Saos-2 cells); assay: Saos-2 cell proliferation (MTT assay); type: cell-based
Method: Methods of inhibiting cancer growth according to some embodiments described herein were carried out as follows. […] Human mesenchymal stem cells (hMSCs) (Lonza Walkersville Inc., USA) were cultured in growth medium composed of Dulbecco's Modified Eagle's Medium (DMEM) supplemented with 10% FBS and 1% penicillin/streptomycin and then seeded in a 96-well plates at a density of 10^4 cells/mL after 80-90% confluence. […] The hMSCs were incubated with the citrate-supplemented media at 37° C. with 5% CO2. Media were changed every other day. […] After incubating at 37° C. for 4 hrs in MTT working solution, the hMSCs in the 96-well plates were submerged in dimethylsulfoxide (DMSO) for 15 minutes on an orbital shaker under dark conditions. The 96-well plates were then placed on a Micro-plate Reader to obtain absorbance values at 595 nm. In addition, live/dead staining was carried out at pre-determined time points (1 day, 4 days, and 7 days). The hMSCs were stained with live/dead working solution (Life Technologies Inc., USA) for 30 minutes and then observed under a Nikon Inverted Fluorescence Microscope to determine cell viability.
The hMSCs were cultured as described above. The Saos-2 cells were cultured in McCoy's 5A medium (Lonza Walkersville Inc., USA) supplemented with 10% FBS and 1% penicillin/streptomycin. […]

[4] = tested on: Bone marrow stromal cells (BMSCs); assay: Calcium nodule formation in BMSC cultures (Von Kossa staining); type: cell-based, Sprague-Dawley rats; details: 12 days of osteogenic induction
Method: Methods of promoting bone growth according to some embodiments described herein were carried out as follows. Bone marrow stromal cells (BMSCs) derived from 6 week old male Sprague-Dawley rats were cultured in growth medium containing Minimum Essential Medium Alpha (αMEM) supplemented with 10% (V/V) fetal bovine serum (FBS), 0.25 μg/mL Fungizone, and 1% (V/V) penicillin and streptomycin in 6-well plates at a density of 2×10^5 cells/well (Day 0). […] After 12 days of osteogenic induction, the BMSCs cultures were stained with Von Kossa staining and imaged by optical microscopy. The numbers of calcium nodules per well were counted in the inverted microscope. The total area of the calcium nodules was also calculated. FIG. 6A illustrates microscope images of Von Kossa staining. FIG. 6B illustrates the number of observed calcium nodules. FIG. 6C illustrates the total area of the calcium nodules.

For `O=C(O)CC(O)(CC(=O)O)C(=O)O` [citrate, citric acid], the calcium deposit formation [1] was “able to promote calcium deposit formation”, the OPN expression [2] was “closely associated in a dose-dependent relationship” and the Saos-2 cell proliferation ([3]; concentrations above 800 μM, 1 day and 4 days) was “inhibit Saos-2 cell proliferation”. For the same molecule, the Saos-2 cell killing ([3]; concentrations above 2000 μM) was “most Saos-2 cells were killed”, the “number and size of calcium nodules” value ([4]; citrate concentration of 20 μM) was “induced the highest number of calcium nodules” and the calcium nodule formation ([4]; citrate-supplemented osteogenic media (2 μM to 5 mM citric acid)) was “promoted calcium module formation in a dose-dependent manner”.
